Values quoted from earlier work as cited in patent US6440438B2, “Covering impregnated with insecticide” (Protec Health International Limited, priority 1997, dated 2002).

Legend:
[1] = not given; remark: listed apart in the source
[2] = placed directly in contact with the skin

SMILES: CC1(C)C(C=C(Cl)Cl)C1C(=O)OCc1cccc(Oc2ccccc2)c1 (stereo not shown) [Permethrin]
- period within which skin sensations (numbing, burning, tingling) usually subside (contact with permethrin, reversible): twelve
- toxicity to humans (in vivo): not considered toxic
- solubility in water [1]: does not dissolve in water
- proportion of the chemical absorbed by the skin [2]: about 0.5%
